Like-named read-outs stand apart in the source and are kept apart here.
Key:
[1] = test system: blood pressure of SHR; experiment: Antihypertensive effect by single oral administration, SHR, modified tail-cuff method; assay type: in vivo, rat (spontaneously hypertensive rats
From the text: (§1) The effect was examined through both direct and modified tail-cuff methods using male SHRs aged 25 to 30 weeks and weighing about 300 g.

[2] = test system: motorability; experiment: Effect on motorability (rotating bar); assay type: in vivo, mouse (dd-strain); conditions: 25 mg/kg oral; for Number of Animals that fell: 10 examined
Method: 25 mg/kg of MR were administered to 10 mice per one group. The mice were put on a wooden bar of 2 cm diameter which rotated at 10 r.p.m., and the number of mice which fell down from the bar was counted.

[3] = test system: hexobarbital hypnosis
Method: Period of induced sleeping was measured with righting reflex as a parameter.

[4] = test system: blood pressure of SHR; experiment: Antihypertensive effect by single administration, SHR, direct cannulation; assay type: in vivo, rat (spontaneously hypertensive rats; conditions: for average rate of decrease in blood pressure: over 6 hours; for blood pressure decrease: 6 hours after; for ED (20% blood pressure decrease): Rattus norvegicus, read-out: DB20 (20% blood pressure descending dose)
Method: as §1
In the direct cannulation method, polyethylene cannules were inserted in femoral arteries of the conscious unanesthesized SHRs under back-fixation,and MR solution was administered in an amount of 0.1 mg/100 g of weight for venous injection, and 1 ml/100 g of weight for oral administration. Changes in the blood pressure over 6 hours were measured with a multi-purpose polygraph RM-85 made by NIHON KODEN Co., Ltd. MR was dissolved in 0.9% NaCl aqueous solution with 1 N-HCl, and the solution was neutralized for use.

[5] = test system: histamine; conditions: in vivo; cited from earlier work
[6] = test system: rats
Method: Urinanalysis was conducted on the last day of the repeated administration as to pH, protein content, glucose content, ketone body content and occult blood by testing paper methods. (Labstix, Miles-Sankyo Co., Ltd.)

[7] = 20 mg/kg oral
Method: Blood was drawn from branchial vein of dogs, vein of ear of rabbits and carotic artery of rats after slaughter. Urine was collected with urine bladder catheter for rabbits and metabolic cages for rats. Gathering bile was performed with biliary duct cannulation without anesthesia.

[8] = test system: spontaneous motor activity; experiment: Effect on spontaneous motor activity; assay type: in vivo, mouse (dd-strain); conditions: 25 mg/kg oral
Method: 25 mg/kg of MR were administered to the mice. After 15 minutes of letting them alone, spontaneous motor activity over 6 hours was measured hourly with an "Animex" made by AB Farad.

[9] = test system: rats; remark: listed apart in the source
Method: The rate were bred in individual cages under the following conditions: temperature, 23°±2° C.; relative humidity, 55±5%; free taking of solid food (CE-2, CLEA Japan, Inc.) and tap water.
Volume of the medicine solution for one administration was dicided to be 1 ml per 100 g of weight, and the dose was administered once a day, 6 times a week over 5 weeks. The control group received the same volume of 0.2% carboxymethyl cellulose solution.

[10] = Effect on body temperature; assay type: in vivo, mouse (dd-strain); conditions: 25 mg/kg oral

COC(=O)[C@H]1[C@H]2C[C@@H]3c4[nH]c5cc(OC)ccc5c4CCN3C[C@H]2C[C@@H](O)[C@@H]1OC [MR, methylreserpate]
maximum rate of blood pressure decrease ([1]; 6.25 mg/kg oral): 31.7%
time to reach original blood pressure level ([1]; 6.25 mg/kg oral): 48 h
time to reach original blood pressure level ([1]; 25 mg/kg oral): 72 h
maximum rate of blood pressure decrease ([1]; 25.0 mg/kg oral): 42.5%
time from which blood pressure gradually returned ([1]; after plateau, 6.25, 12.5 and 25 mg/kg oral): about 12 hours
Number of Animals that fell ([2]; 1 hour after): 0 Number of Animals
Number of Animals that fell ([2]; 2 hours after): 2 Number of Animals
effect on motorability ([2]; 3 hours after): slight suppression of motorability
Number of Animals that fell ([2]; 3 hours after): 4 Number of Animals
Hypnotic Time ([3]; 25 mg/kg oral): 159 ± 7 s
Sleeping Time ([3]; 25 mg/kg oral): 34.2 ± 6.7 min
Hypnotic Time ([3]; mouse, in vivo): 144 ± 7 s
Sleeping Time ([3]; mouse, in vivo): 32.9 ± 4.4 min
influence on time to induce sleep and sleeping period ([3]; mouse, in vivo): did not influence
average rate of decrease in blood pressure ([4]; 2 mg/kg venous injection): 13%
onset of blood pressure decrease ([4]; 4 mg/kg oral): 2 h
blood pressure decrease ([4]; 4 mg/kg oral): 18%
average rate of decrease in blood pressure ([4]; 4 mg/kg venous injection): 22.5%
blood pressure decrease ([4]; 8 mg/kg oral): 26%
average rate of decrease in blood pressure ([4]; 8 mg/kg venous injection): 28%
blood pressure decrease ([4]; 16 mg/kg oral): 37%
ED (20% blood pressure decrease) ([4]; iv, I.V.): 3.5 mg/kg
ED (20% blood pressure decrease) ([4]; po, P.O.): 11.9 mg/kg
antihypertensive effect compared with RCN ([4]; oral): almost the same
antihypertensive effect ([4]; oral, summary for SHR and dogs): prolonged antihypertensive effect
antihypertensive effect compared with RCN ([4]; venous injection): less intense
histamine [5]: increse of histamine
urine Glucose - ([6]; 25.0 mg/kg): 10 Number of Rats
urine Ketone Body + ([6]; 25.0 mg/kg): 0 Number of Rats
urine Ketone Body - ([6]; 25.0 mg/kg): 10 Number of Rats
urine Occult Blood - ([6]; 25.0 mg/kg): 10 Number of Rats
urine Protein + ([6]; 25.0 mg/kg): 6 Number of Rats
urine Protein ++ ([6]; 25.0 mg/kg): 4 Number of Rats
urine Protein +++ ([6]; 25.0 mg/kg): 0 Number of Rats
urine Protein - ([6]; 25.0 mg/kg): 0 Number of Rats
urine pH 6 ([6]; 25.0 mg/kg): 2 Number of Rats
urine pH 7 ([6]; 25.0 mg/kg): 7 Number of Rats
urine pH 8 ([6]; 25.0 mg/kg): 1 Number of Rats
urine Glucose - ([6]; 50.0 mg/kg): 10 Number of Rats
urine Ketone Body + ([6]; 50.0 mg/kg): 1 Number of Rats
urine Ketone Body - ([6]; 50.0 mg/kg): 9 Number of Rats
urine Occult Blood - ([6]; 50.0 mg/kg): 10 Number of Rats
urine Protein + ([6]; 50.0 mg/kg): 6 Number of Rats
urine Protein ++ ([6]; 50.0 mg/kg): 4 Number of Rats
urine Protein +++ ([6]; 50.0 mg/kg): 0 Number of Rats
urine Protein - ([6]; 50.0 mg/kg): 0 Number of Rats
urine pH 6 ([6]; 50.0 mg/kg): 1 Number of Rats
urine pH 7 ([6]; 50.0 mg/kg): 7 Number of Rats
urine pH 8 ([6]; 50.0 mg/kg): 2 Number of Rats
urine Glucose - ([6]; 100.0 mg/kg): 10 Number of Rats
urine Ketone Body + ([6]; 100.0 mg/kg): 1 Number of Rats
urine Ketone Body - ([6]; 100.0 mg/kg): 9 Number of Rats
urine Occult Blood - ([6]; 100.0 mg/kg): 10 Number of Rats
urine Protein + ([6]; 100.0 mg/kg): 3 Number of Rats
urine Protein ++ ([6]; 100.0 mg/kg): 3 Number of Rats
urine Protein +++ ([6]; 100.0 mg/kg): 3 Number of Rats
urine Protein - ([6]; 100.0 mg/kg): 1 Number of Rats
urine pH 6 ([6]; 100.0 mg/kg): 2 Number of Rats
urine pH 7 ([6]; 100.0 mg/kg): 7 Number of Rats
urine pH 8 ([6]; 100.0 mg/kg): 1 Number of Rats
increase in urine volume, interpretation ([6]; higher doses): seems to be a diuretic effect
urinanalysis overall ([6]; last day of repeated administration): do not indicate abnormal feature any worth special mention
urine Glucose - ([6]; rat, in vivo): 10 Number of Rats
urine Ketone Body + ([6]; rat, in vivo): 0 Number of Rats
urine Ketone Body - ([6]; rat, in vivo): 10 Number of Rats
urine Occult Blood - ([6]; rat, in vivo): 10 Number of Rats
urine Protein + ([6]; rat, in vivo): 5 Number of Rats
urine Protein ++ ([6]; rat, in vivo): 3 Number of Rats
urine Protein +++ ([6]; rat, in vivo): 2 Number of Rats
urine Protein - ([6]; rat, in vivo): 0 Number of Rats
urine pH 6 ([6]; rat, in vivo, pH 6): 3 Number of Rats
urine pH 7 ([6]; rat, in vivo, pH 7): 4 Number of Rats
urine pH 8 ([6]; rat, in vivo, pH 8): 3 Number of Rats
Area under the Curve of MR Content in Serum [7]: 63.6
average suppressive effect among four groups ([8]; P=0.05): no significant difference
effect on spontaneous motor activity ([8]; from 3 hours after): tended to supress spontaneous motor activity
Eosino. ([9]; 25.0 mg/kg, day 10): 1.5±0.3%
Lymph. ([9]; 25.0 mg/kg, day 10): 81.8±2.0%
Mono. ([9]; 25.0 mg/kg, day 10): 2.1±0.4%
Neutro. ([9]; 25.0 mg/kg, day 10): 14.6±1.6%
Platelet ([9]; 25.0 mg/kg, day 10): 853±32.6 ×10^3 /mm^3
Eosino. ([9]; 25.0 mg/kg, day 20): 1.8±0.4%
Lymph. ([9]; 25.0 mg/kg, day 20): 74.8±2.1%
Mono. ([9]; 25.0 mg/kg, day 20): 1.2±0.3%
Neutro. ([9]; 25.0 mg/kg, day 20): 22.8±2.2%
Eosino. ([9]; 25.0 mg/kg, day 30): 1.4±0.6%
Lymph. ([9]; 25.0 mg/kg, day 30): 78.0±2.0%
Mono. ([9]; 25.0 mg/kg, day 30): 1.5±0.5%
Neutro. ([9]; 25.0 mg/kg, day 30): 19.2±1.9%
Platelet ([9]; 25.0 mg/kg, day 30): 658±26.8 ×10^3 /mm^3
Eosino. ([9]; 50.0 mg/kg, day 10): 1.8±0.4%
Lymph. ([9]; 50.0 mg/kg, day 10): 82.3±1.1%
Mono. ([9]; 50.0 mg/kg, day 10): 2.4±0.3%
Neutro. ([9]; 50.0 mg/kg, day 10): 13.5±0.8%
Platelet ([9]; 50.0 mg/kg, day 10): 861±33.5 ×10^3 /mm^3
Eosino. ([9]; 50.0 mg/kg, day 20): 1.3±0.4%
Lymph. ([9]; 50.0 mg/kg, day 20): 75.0±2.3%
Mono. ([9]; 50.0 mg/kg, day 20): 1.6±0.3%
Neutro. ([9]; 50.0 mg/kg, day 20): 22.1±2.2%
Eosino. ([9]; 50.0 mg/kg, day 30): 2.6±0.5%
Lymph. ([9]; 50.0 mg/kg, day 30): 78.7±1.8%
Mono. ([9]; 50.0 mg/kg, day 30): 1.2±0.2%
Neutro. ([9]; 50.0 mg/kg, day 30): 17.5±1.8%
Platelet ([9]; 50.0 mg/kg, day 30): 656±36.7 ×10^3 /mm^3
Eosino. ([9]; 100.0 mg/kg, day 10): 2.3±0.5%
Lymph. ([9]; 100.0 mg/kg, day 10): 77.1±2.2%
Mono. ([9]; 100.0 mg/kg, day 10): 2.3±0.3%
Neutro. ([9]; 100.0 mg/kg, day 10): 18.3±2.3%
Platelet ([9]; 100.0 mg/kg, day 10): 782±31.2 ×10^3 /mm^3
Eosino. ([9]; 100.0 mg/kg, day 20): 1.2±0.3%
Lymph. ([9]; 100.0 mg/kg, day 20): 69.6±3.0%
Mono. ([9]; 100.0 mg/kg, day 20): 1.6±0.3%
Neutro. ([9]; 100.0 mg/kg, day 20): 27.6±2.9%
Eosino. ([9]; 100.0 mg/kg, day 30): 1.4±0.4%
Lymph. ([9]; 100.0 mg/kg, day 30): 75.2±1.6%
Mono. ([9]; 100.0 mg/kg, day 30): 1.5±0.3%
Neutro. ([9]; 100.0 mg/kg, day 30): 21.9±1.9%
Platelet ([9]; 100.0 mg/kg, day 30): 696±13.9 ×10^3 /mm^3
Eosino. ([9]; 200.0 mg/kg, day 10, 4 rats): 0.8±0.5%
Lymph. ([9]; 200.0 mg/kg, day 10, 4 rats): 36.3±12%
Mono. ([9]; 200.0 mg/kg, day 10, 4 rats): 1.3±0.5%
Neutro. ([9]; 200.0 mg/kg, day 10, 4 rats): 61.8±12%
Platelet ([9]; 200.0 mg/kg, day 10, 4 rats): 592±54.7 ×10^3 /mm^3
body temperature (rectal) ([10]; 1 hour after): 36.6±0.2 °C
body temperature (rectal) ([10]; 2 hours after): 36.2± 0.2 °C
body temperature (rectal) ([10]; 3 hours after): 35.6±0.1 °C
effect on body temperature ([10]; 3 hours after): a slight decrease in the temperature
